Columns and labels:
TNF-α = TNF-α production in RAW264.7 mouse macrophage cells (Example 6); type: cell-based; details: final 0.01, 0.1 and 1 ng/mL, no LPSp, FIG. 6
Experimental: In the same manner as “(1) Preparation of test solution” in Example 3, a solution having a concentration of the purified product of 20,000 ng/mL was prepared, and the solution was serially diluted with a culture solution having the following composition, thereby obtaining a total of three test solutions having a concentration of 2 ng/mL, 0.2 ng/mL, and 0.02 ng/mL. Since the three test solutions are diluted twice when added to the cells, the final concentrations of the purified products are 1 ng/mL, 0.1 ng/mL, and 0.01 ng/mL, respectively.
The culture medium was added to mouse macrophage cells (RAW264.7, ATCC) to prepare solutions at concentrations of 4×10^5 cells/mL. The solutions were seeded in 96-well flat-bottomed plates in 100 μL portions, i.e., 4×10^4 cells/100 μL/well. After seeding, the cells were incubated at 37° C. in 5% CO2 for 2 hours until they adhered to the bottoms of the wells and extended. Next, 100 μL of the test solution was added to each well. After adding the test solution, the cells were incubated at 37° C. in a 5% CO2 for 24 hours. After the incubation, the culture supernatant of the wells was removed, 150 μl of the above-mentioned culture solution was newly added (hereinafter, this step is referred to as a “culture solution adding step”), and the wells were incubated at 37° C. in a 5% CO2 for 24 hours.
After incubation, 50 μl of culture supernatant from each well was collected, transferred to each well of new 96-well flat-bottom plates, and absorbance was measured using mouse TNF a assay kit (manufactured by Biolegend) and converted to TNF-α concentrations.

human TLR4 = target: T1, human TLR4 (Homo sapiens, UniProt O00206+Q9Y6Y9); assay: IL-8 production in Human Embryonic Kidney cells transfected with human TLR4 gene (Example 3); type: cell-based; details: HEK cells with human TLR4 gene; final 0.1-10,000 ng/mL; 24 hours; ELISA; FIG. 3
T1 construct: host or cells: Human Embryonic Kidney cells
Experimental: The purified product obtained in Example 1 (the mixture of the compound represented by Formula (A1), the compound represented by Formula (B1), the compound represented by Formula (A2), and the compound represented by Formula (B2)) was dissolved in water for injection to a concentration of 2 mg/mL and stored at 4° C., and the solution was heated at 37° C. for 5 minutes and sonicated at 37° C. for 1 minute. 10 μL of the sonicated solution was added to 990 μL of the culture solution having the following composition to thoroughly mix, and a solution having a concentration of 20,000 ng/mL was prepared, which was serially diluted using the culture solution to obtain six test solutions having concentrations of 2,000 ng/mL, 200 ng/mL, 20 ng/mL, 2 ng/mL, and 0.2 ng/mL. Since the six test solutions are diluted twice when added to the cells, the final concentrations of the purified products are 10,000 ng/mL, 1,000 ng/mL, 100 ng/mL, 10 ng/mL, 1 ng/mL, and 0.1 ng/mL, respectively.
The culture medium was added to Human Embryonic Kidney cells (manufactured by InvivoGen) into which human TLR4 gene had been transfected, and solution were prepared in which the concentration of the cell was 4×10^5 cells/mL. The solution was seeded in 96-well flat-bottomed plates in 100 μL portions, i.e., 4×10^4 cells/100 μL/well. After seeding, the culture was cultured at 37° C. in a 5% CO2 for 24 hours, then the culture supernatant was removed, and 100 μL of the above-described culture medium was added to each well. Next, 100 μL of the test solution was added to each well. After adding the test solution, the culture was incubated at 37° C. in a 5% CO2 for 24 hours.
Culture supernatants from the wells were collected and the concentrations of Interleukin-8 (IL-8) were measured using Human IL-8 ELISA MAX (registered trademark) Standard (Biolegend).

PPARγ gene = PPARγ gene expression in THP-1 cells by CAGE method (Example 8-2); type: cell-based, human; details: 3 hours
Experimental: The same culture medium as in Example 8-1(2) was added to the THP-1 cells to prepare solutions in which the concentrations of the cells were 5×10^5 cells/mL. The expression level of the PPARγ gene in this solution was measured by the CAGE method and found to be 3.97 TPM (Tags Per Million). After the measurement, the cell solution was divided into the following four groups. That is, there are four groups: a group in which a solution of the purified product is added to the cell solution so as to have a final concentration of 1 μg/mL (Example 8-2A), a group in which a solution of the purified product is added to the cell solution so as to have a final concentration of 10 μg/mL (Example 8-2B), a group in which nothing is added to the cell solution (Comparative Example 8-2A), and a group in which a LPSp solution is added to the cell solution so as to have a final concentration of 100 ng/mL (Comparative Example 8-2B). After culturing the four groups for 3 hours, the expression level of the PPARγ gene was measured by the CAGE method. FIG. 27 is a graph showing the expression levels of the PPARγ genes. In FIG. 27, the horizontal axis represents the incubation time, and the vertical axis represents the expression amount (TPM) of the PPARγ gene. […] In contrast, in Comparative Example 8-2A, the expression level of the PPARγ gene decreased slightly from 3.97 TPM to 3.89 TPM during 3 hours, and in Comparative Example 8-2B, the expression level of the PPARγ gene increased from 3.97 TPM to 4.31 TPM during 3 hours, but the degree of the increase was not significant.

T1 sequence (O00206 24-839): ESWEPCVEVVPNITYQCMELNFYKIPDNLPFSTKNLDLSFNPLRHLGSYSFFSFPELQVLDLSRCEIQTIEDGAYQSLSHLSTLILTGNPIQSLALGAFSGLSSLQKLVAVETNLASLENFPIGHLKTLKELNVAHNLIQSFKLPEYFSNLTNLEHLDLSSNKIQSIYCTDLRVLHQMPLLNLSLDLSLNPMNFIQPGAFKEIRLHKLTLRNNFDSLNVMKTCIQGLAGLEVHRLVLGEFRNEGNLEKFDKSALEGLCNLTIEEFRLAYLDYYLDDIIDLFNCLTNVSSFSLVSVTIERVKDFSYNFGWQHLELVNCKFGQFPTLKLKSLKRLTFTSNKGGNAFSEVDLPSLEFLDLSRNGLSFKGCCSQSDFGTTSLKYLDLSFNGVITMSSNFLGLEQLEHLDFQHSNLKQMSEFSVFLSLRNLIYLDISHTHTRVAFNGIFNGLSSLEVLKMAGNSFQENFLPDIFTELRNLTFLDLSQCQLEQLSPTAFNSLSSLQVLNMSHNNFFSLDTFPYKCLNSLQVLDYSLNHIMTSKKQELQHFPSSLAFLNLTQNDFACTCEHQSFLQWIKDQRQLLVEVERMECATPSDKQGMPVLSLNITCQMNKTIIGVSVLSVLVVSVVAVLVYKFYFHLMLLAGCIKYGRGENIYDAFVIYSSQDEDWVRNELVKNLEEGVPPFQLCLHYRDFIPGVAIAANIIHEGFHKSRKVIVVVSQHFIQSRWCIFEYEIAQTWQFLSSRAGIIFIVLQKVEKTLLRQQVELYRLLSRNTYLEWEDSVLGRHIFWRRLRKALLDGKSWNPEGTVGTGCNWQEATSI
T1 sequence (Q9Y6Y9 17-160 limits assumed): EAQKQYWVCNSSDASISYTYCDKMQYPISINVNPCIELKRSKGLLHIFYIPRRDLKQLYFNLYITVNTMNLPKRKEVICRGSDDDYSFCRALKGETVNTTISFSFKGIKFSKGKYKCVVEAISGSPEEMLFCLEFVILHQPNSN

CCCCCC/C=C/CCCCCC(=O)OC(CCCCCCCCCCC)CC(=O)NC1C(OCC2OC(OP(=O)(O)O)C(NC(=O)CC(=O)CCCCCCCCCCC)C(OC(=O)CC(O)CCCCCCC)C2O)OC(COC2(C(=O)O)CC(OC3(C(=O)O)CC(O)C(OC4OC(C(=O)O)C(OC5OC(CO)C(O)C(O)C5O)C(O)C4O)C(C(O)CO)O3)C(OC3OC(CO)C(O)C(O)C3O)C(C(O)CO)O2)C(OP(=O)(O)O)C1OC(=O)CC(O)CCCCCCC (stereo not drawn) [Formula (B2)]
Equivalent results were obtained: TNF-α concentration in culture supernatant (TNF-α) | concentration of IL-8 in culture supernatant (human TLR4) | effect on expression of the PPARγ gene (in words) (PPARγ gene)

CCCCCC/C=C/CCCCCC(=O)OC(CCCCCCCCCCC)CC(=O)NC1C(OCC2OC(OP(=O)(O)O)C(NC(=O)CC(=O)CCCCCCCCCCC)C(OC(=O)CC(O)CCCCCCC)C2O)OC(COC2(C(=O)O)CC(OC3(C(=O)O)CC(OC4OC(C(=O)O)C(OC5OC(CO)C(O)C(O)C5O)C(O)C4O)C(O)C(C(O)CO)O3)C(OC3OC(COP(=O)(O)O)C(OC4OC(CO)C(O)C(O)C4O)C(O)C3O)C(C(O)CO)O2)C(OP(=O)(O)O)C1OC(=O)CC(O)CCCCCCC (stereo not drawn) [Formula (A1)]
Equivalent results were obtained: TNF-α concentration in culture supernatant (TNF-α) | concentration of IL-8 in culture supernatant (human TLR4) | effect on expression of the PPARγ gene (in words) (PPARγ gene)

CCCCCC/C=C/CCCCCC(=O)OC(CCCCCCCCCCC)CC(=O)NC1C(OCC2OC(OP(=O)(O)O)C(NC(=O)CC(=O)CCCCCCCCCCC)C(OC(=O)CC(O)CCCCCCC)C2O)OC(COC2(C(=O)O)CC(OC3(C(=O)O)CC(OC4OC(C(=O)O)C(OC5OC(CO)C(O)C(O)C5O)C(O)C4O)C(O)C(C(O)CO)O3)C(OC3OC(CO)C(O)C(O)C3O)C(C(O)CO)O2)C(OP(=O)(O)O)C1OC(=O)CC(O)CCCCCCC (stereo not drawn) [Formula (A2)]
Equivalent results were obtained: TNF-α concentration in culture supernatant (TNF-α) | concentration of IL-8 in culture supernatant (human TLR4) | effect on expression of the PPARγ gene (in words) (PPARγ gene)

CCCCCC/C=C/CCCCCC(=O)OC(CCCCCCCCCCC)CC(=O)NC1C(OCC2OC(OP(=O)(O)O)C(NC(=O)CC(=O)CCCCCCCCCCC)C(OC(=O)CC(O)CCCCCCC)C2O)OC(COC2(C(=O)O)CC(OC3(C(=O)O)CC(O)C(OC4OC(C(=O)O)C(OC5OC(CO)C(O)C(O)C5O)C(O)C4O)C(C(O)CO)O3)C(OC3OC(COP(=O)(O)O)C(OC4OC(CO)C(O)C(O)C4O)C(O)C3O)C(C(O)CO)O2)C(OP(=O)(O)O)C1OC(=O)CC(O)CCCCCCC (stereo not drawn) [Formula (B1)]
Equivalent results were obtained: TNF-α concentration in culture supernatant (TNF-α) | concentration of IL-8 in culture supernatant (human TLR4) | effect on expression of the PPARγ gene (in words) (PPARγ gene)
